IC50 data for 31 molecules are collected here from patent US10407422B2, “Triazolopyridine inhibitors of myeloperoxidase” (priority 2015, dated 2019).

The target of assay [1] is T1, myeloperoxidase (MPO) (Homo sapiens (Human), UniProt P05164). In words: MPO peroxidation assay (Amplex Red assay). In kind it is biochemical. As to conditions: potency range class. Put shortly: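 IC50 values come from a four-parameter fit of rates taken from the linear 180-540 s portion of a 15 min kinetic read of resorufin (Ex 535/Em 590 nm). Amplex Red (200 μM) plus 10 mM H2O2 was added after a 10 min room-temperature preincubation of inhibitor with 200 pM MPO and 40 nM H2O2 in 100 mM KPi, pH 7.4.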
T1 sequence (P05164 49-745): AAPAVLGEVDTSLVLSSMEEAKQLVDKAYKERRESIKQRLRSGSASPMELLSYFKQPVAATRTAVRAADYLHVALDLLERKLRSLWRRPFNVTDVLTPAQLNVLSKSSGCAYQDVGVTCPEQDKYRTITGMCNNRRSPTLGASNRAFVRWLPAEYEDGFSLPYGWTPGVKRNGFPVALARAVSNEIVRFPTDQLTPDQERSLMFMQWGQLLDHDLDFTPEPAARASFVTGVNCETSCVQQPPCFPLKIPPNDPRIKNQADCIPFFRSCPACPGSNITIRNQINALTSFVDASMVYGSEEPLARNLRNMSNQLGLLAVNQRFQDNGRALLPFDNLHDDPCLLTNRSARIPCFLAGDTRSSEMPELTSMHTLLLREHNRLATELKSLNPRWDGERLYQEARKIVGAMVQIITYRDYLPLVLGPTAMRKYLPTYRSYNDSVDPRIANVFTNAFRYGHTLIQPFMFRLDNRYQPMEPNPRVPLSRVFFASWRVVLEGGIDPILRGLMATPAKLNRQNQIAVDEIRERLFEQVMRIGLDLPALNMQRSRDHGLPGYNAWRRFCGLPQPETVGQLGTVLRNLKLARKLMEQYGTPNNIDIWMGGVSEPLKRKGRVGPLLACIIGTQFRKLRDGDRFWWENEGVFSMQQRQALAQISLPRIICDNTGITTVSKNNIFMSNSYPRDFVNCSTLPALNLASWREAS

Assay [2] concerns the target T1, myeloperoxidase (MPO). In words: MPO chlorination assay (APF assay). It is filed as biochemical. As to conditions: potency range class. Put shortly:
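Chlorinating activity followed by APF cleavage to fluorescein (485/535 nm, 3 min kinetic read) after adding APF and 10 μM H2O2. Beforehand, 200 pM enzyme, compound and 120 mM NaCl sat 10 min at room temperature in 100 mM KPi, pH 7.4. Initial-rate slopes gave % inhibition; IC50 by Hill-slope fit.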

On to `COc1ccc(Cn2cc(Cc3cc(N)nc4[nH]nnc34)cn2)cn1` [Example 149, 7-({1-[(6-Methoxypyridin-3-yl)methyl]-1H-pyrazol-4-yl}methyl)-3H-[1,2,3]triazolo[4,5-b]pyridin-5-amine], for which the IC50 (usually the concentration that inhibits the measured activity by half) at myeloperoxidase (MPO) [1] was 1 to 100 nM; at myeloperoxidase (MPO) [2], 101 to 999 nM.
With `Nc1cc(Cc2cnn(Cc3ccc4c(c3)OCO4)c2)c2nn[nH]c2n1` [Example 150, 7-{[1-(2H-1,3-Benzodioxol-5-ylmethyl)-1H-pyrazol-4-yl]methyl}-3H-[1,2,3]triazolo[4,5-b]pyridin-5-amine], the IC50 against myeloperoxidase (MPO) [1] was in the range of 1 to 100 nM; against myeloperoxidase (MPO) [2], 101 to 999 nM.
The matching figures for `Nc1cc(Cc2cnn(Cc3ccc4c(c3)OCCO4)c2)c2nn[nH]c2n1` [Example 151, 7-{[1-(2,3-Dihydro-1,4-benzodioxin-6-ylmethyl)-1H-pyrazol-4-yl]methyl}-3H-[1,2,3]triazolo[4,5-b]pyridin-5-amine]: 1 to 100 nM and 101 to 999 nM.
As to `Nc1cc(Cc2cnn(Cc3ccc4c(c3)NCCC4)c2)c2nn[nH]c2n1` [Example 152, 7-{[1-(1,2,3,4-Tetrahydroquinolin-7-ylmethyl)-1H-pyrazol-4-yl]methyl}-3H-[1,2,3]triazolo[4,5-b]pyridin-5-amine], the half-maximal inhibitory concentration (IC50) lay within 1000 to 10000 nM against myeloperoxidase (MPO) [1] and 1 to 100 nM at myeloperoxidase (MPO) [2].
The matching figures for `Nc1cc(Cc2cnn(Cc3ccc4c(c3)CNCC4)c2)c2nn[nH]c2n1` [Example 153, 7-{[1-(1,2,3,4-Tetrahydroisoquinolin-7-ylmethyl)-1H-pyrazol-4-yl]methyl}-3H-[1,2,3]triazolo[4,5-b]pyridin-5-amine]: 1 to 100 nM and 1 to 100 nM.
The matching figures for `N#Cc1cccc(-c2ccc(Cn3cc(Cc4cc(N)nc5[nH]nnc45)cn3)cc2)c1` [Example 154, 3-(4-{[4-({5-Amino-3H-[1,2,3]triazolo[4,5-b]pyridin-7-yl}methyl)-1H-pyrazol-1-yl]methyl}phenyl)benzonitrile]: 101 to 999 nM and 101 to 999 nM.
For the molecule `Nc1cc(Cc2cnn(Cc3cccc(-c4ccc(OC(F)(F)F)cc4)c3)c2)c2nn[nH]c2n1` [Example 155, 7-{[1-({3-[4-(Trifluoromethoxy)phenyl]phenyl}methyl)-1H-pyrazol-4-yl]methyl}-3H-[1,2,3]triazolo[4,5-b]pyridin-5-amine], the IC50 against myeloperoxidase (MPO) [1] and at myeloperoxidase (MPO) [2] was 101 to 999 nM each time.
As to `COc1ncc(-c2cccc(Cn3cc(Cc4cc(N)nc5[nH]nnc45)cn3)c2)cn1` [Example 156, 7-[(1-{[3-(2-Methoxypyrimidin-5-yl)phenyl]methyl}-1H-pyrazol-4-yl)methyl]-3H-[1,2,3]triazolo[4,5-b]pyridin-5-amine], the IC50 at myeloperoxidase (MPO) [1] and at myeloperoxidase (MPO) [2] was 1 to 100 nM throughout.
`Nc1cc(Cc2cnn(Cc3cccc(-c4cnoc4)c3)c2)c2nn[nH]c2n1` [Example 157, 7-[(1-{[3-(1,2-Oxazol-4-yl)phenyl]methyl}-1H-pyrazol-4-yl)methyl]-3H-[1,2,3]triazolo[4,5-b]pyridin-5-amine]: the IC50 on myeloperoxidase (MPO) [1] and against myeloperoxidase (MPO) [2] was 101 to 999 nM throughout.
As for `N#Cc1cccc(Cn2cc(Cc3cc(N)nc4[nH]nnc34)cn2)c1` [Example 158, 3-{[4-({5-Amino-3H-[1,2,3]triazolo[4,5-b]pyridin-7-yl}methyl)-1H-pyrazol-1-yl]methyl}benzonitrile], the IC50 at myeloperoxidase (MPO) [1] and against myeloperoxidase (MPO) [2] was 1 to 100 nM in each case.
As for `CN1CCc2cc(Cn3cc(Cc4cc(N)nc5[nH]nnc45)cn3)ccc2C1` [Example 159, -((1-((2-Methyl-1,2,3,4-tetrahydroisoquinolin-6-yl)methyl)-1H-pyrazol-4-yl)methyl)-3H-[1,2,3]triazolo[4,5-b]pyridin-5-amine], the IC50 on myeloperoxidase (MPO) [1] lay in the range of 1 to 100 nM; against myeloperoxidase (MPO) [2] it was 101 to 999 nM.
On the same counts, the results for `Nc1cc(Cn2nnc3ccccc32)c2nn[nH]c2n1` [Example 160, 7-(1H-1,2,3-Benzotriazol-1-ylmethyl)-3H-[1,2,3]triazolo[4,5-b]pyridin-5-amine] are 1 to 100 nM and 1 to 100 nM.
As for `Nc1cc(Cn2ncc(-c3ccccc3)n2)c2nn[nH]c2n1` [Example 161, 7-[(4-Phenyl-2H-1,2,3-triazol-2-yl)methyl]-3H-[1,2,3]triazolo[4,5-b]pyridin-5-amine], the results for the IC50 at myeloperoxidase (MPO) [1] and on myeloperoxidase (MPO) [2] were 101 to 999 nM and 1000 to 10000 nM, respectively.
With `Nc1cc(Cn2cc(-c3ccccc3)nn2)c2nn[nH]c2n1` [Example 162, 7-[(4-Phenyl-1H-1,2,3-triazol-1-yl)methyl]-3H-[1,2,3]triazolo[4,5-b]pyridin-5-amine], the IC50 against myeloperoxidase (MPO) [1] and against myeloperoxidase (MPO) [2] was 101 to 999 nM in each case.
`Nc1cc(Cn2nc3ccc(Cl)cc3n2)c2nn[nH]c2n1` [Example 163, 7-[(5-Chloro-2H-1,2,3-benzotriazol-2-yl)methyl]-3H-[1,2,3]triazolo[4,5-b]pyridin-5-amine]: the IC50 at myeloperoxidase (MPO) [1] and against myeloperoxidase (MPO) [2] was 1000 to 10000 nM each time.
As to `Nc1cc(Cn2nc3cccc(Cl)c3n2)c2nn[nH]c2n1` [Example 164, 7-[(4-Chloro-2H-1,2,3-benzotriazol-2-yl)methyl]-3H-[1,2,3]triazolo[4,5-b]pyridin-5-amine], the IC50 against myeloperoxidase (MPO) [1] and at myeloperoxidase (MPO) [2] was 1000 to 10000 nM in each case.
On to `Nc1cc(Cn2nnc3cccc(Cl)c32)c2nn[nH]c2n1` [Example 165, 7-[(7-Chloro-1H-1,2,3-benzotriazol-1-yl)methyl]-3H-[1,2,3]triazolo[4,5-b]pyridin-5-amine], for which the IC50 against myeloperoxidase (MPO) [1] and against myeloperoxidase (MPO) [2] was 101 to 999 nM in each case.
In the case of `Nc1cc(Cn2nnc3c(Cl)cccc32)c2nn[nH]c2n1` [Example 166], the IC50 against myeloperoxidase (MPO) [1] and against myeloperoxidase (MPO) [2] was 1000 to 10000 nM in each case.
For `Nc1cc(Cn2nnc3ccc(Cl)cc32)c2nn[nH]c2n1` [Example 167, 7-[(6-Chloro-1H-1,2,3-benzotriazol-1-yl)methyl]-3H-[1,2,3]triazolo[4,5-b]pyridin-5-amine], the IC50 at myeloperoxidase (MPO) [1] and against myeloperoxidase (MPO) [2] was 101 to 999 nM in each case.
For `Nc1cc(Cn2nnc3cc(Cl)ccc32)c2nn[nH]c2n1` [Example 168, 7-[(5-Chloro-1H-1,2,3-benzotriazol-1-yl)methyl]-3H-[1,2,3]triazolo[4,5-b]pyridin-5-amine], the IC50 lay within 1 to 100 nM against myeloperoxidase (MPO) [1] and 101 to 999 nM on myeloperoxidase (MPO) [2].
`Nc1cc(Cn2nnc(-c3ccccc3)n2)c2nn[nH]c2n1` [Example 169, 7-[(5-Phenyl-2H-1,2,3,4-tetrazol-2-yl)methyl]-3H-[1,2,3]triazolo[4,5-b]pyridin-5-amine]: the IC50 on myeloperoxidase (MPO) [1] and against myeloperoxidase (MPO) [2] was 101 to 999 nM each time.
For the molecule `Nc1cc(Cn2nnc3ccc(Cc4ccccc4)cc32)c2nn[nH]c2n1` [Example 170, 7-[(6-Benzyl-1H-1,2,3-benzotriazol-1-yl)methyl]-3H-[1,2,3]triazolo[4,5-b]pyridin-5-amine], the IC50 against myeloperoxidase (MPO) [1] and on myeloperoxidase (MPO) [2] was 101 to 999 nM throughout.
As for `Nc1cc(Cn2nnc3cc(Cc4ccccc4)ccc32)c2nn[nH]c2n1` [Example 171, 7-[(5-Benzyl-1H-1,2,3-benzotriazol-1-yl)methyl]-3H-[1,2,3]triazolo[4,5-b]pyridin-5-amine], the IC50 on myeloperoxidase (MPO) [1] and against myeloperoxidase (MPO) [2] was 101 to 999 nM throughout.
For `COc1cc2ccc(Cn3cc(Cc4cc(N)nc5[nH]nnc45)cn3)cc2cn1` [Example 172, 7-((1-((3-Methoxyisoquinolin-7-yl)methyl)-1H-pyrazol-4-yl)methyl)-3H-[1,2,3]triazolo[4,5-b]pyridin-5-amine], the IC50 against myeloperoxidase (MPO) [1] was 1 to 100 nM; at myeloperoxidase (MPO) [2], 101 to 999 nM.
The matching figures for `COc1cc2cc(Cn3cc(Cc4cc(N)nc5[nH]nnc45)cn3)ccc2cn1` [Example 173, 7-((1-((3-Methoxyisoquinolin-6-yl)methyl)-1H-pyrazol-4-yl)methyl)-3H-[1,2,3]triazolo[4,5-b]pyridin-5-amine]: 1 to 100 nM and 101 to 999 nM.
Take `COc1nccc2ccc(Cn3cc(Cc4cc(N)nc5[nH]nnc45)cn3)cc12` [Example 174, 7-((1-((1-Methoxyisoquinolin-7-yl)methyl)-1H-pyrazol-4-yl)methyl)-3H-[1,2,3]triazolo[4,5-b]pyridin-5-amine]: the IC50 against myeloperoxidase (MPO) [1] lay in the range of 1 to 100 nM; on myeloperoxidase (MPO) [2] it was 101 to 999 nM.
The matching figures for `Nc1cc(Cc2cnn(Cc3ccc4cc[nH]c(=O)c4c3)c2)c2nn[nH]c2n1` [Example 175, 7-((4-((5-Amino-3H-[1,2,3]triazolo[4,5-b]pyridin-7-yl)methyl)-1H-pyrazol-1-yl)methyl)isoquinolin-1(2H)-one]: 1 to 100 nM and 101 to 999 nM.
`Nc1cc(Cc2cnn(Cc3ccc4c(c3)CNC4)c2)c2nn[nH]c2n1` [Example 176, 7-((1-(Isoindolin-5-ylmethyl)-1H-pyrazol-4-yl)methyl)-3H-[1,2,3]triazolo[4,5-b]pyridin-5-amine]: the IC50 at myeloperoxidase (MPO) [1] and against myeloperoxidase (MPO) [2] was 1 to 100 nM throughout.
Regarding `Nc1cc(Cc2cnn(Cc3cccc(-c4nccs4)c3)c2)c2nn[nH]c2n1` [Example 177, 7-((1-(3-(Thiazol-2-yl)benzyl)-1H-pyrazol-4-yl)methyl)-3H-[1,2,3]triazolo[4,5-b]pyridin-5-amine], the IC50 is 1 to 100 nM against myeloperoxidase (MPO) [1] and 101 to 999 nM against myeloperoxidase (MPO) [2].
Consider `Nc1cc(Cc2cnn(Cc3cccc(-n4cncn4)c3)c2)c2nn[nH]c2n1` [Example 178, 7-((1-(3-(1H-1,2,4-Triazol-1-yl)benzyl)-1H-pyrazol-4-yl)methyl)-3H-[1,2,3]triazolo[4,5-b]pyridin-5-amine], for which the IC50 on myeloperoxidase (MPO) [1] lay within 1 to 100 nM; against myeloperoxidase (MPO) [2], 101 to 999 nM.
For `Cn1nnc2cc(Cn3cc(Cc4cc(N)nc5[nH]nnc45)cn3)ccc21` [Example 179, 7-({1-[(1-Methyl-1H-1,2,3-benzotriazol-5-yl)methyl]-1H-pyrazol-4-yl}methyl)-3H-[1,2,3]triazolo[4,5-b]pyridin-5-amine], the IC50 against myeloperoxidase (MPO) [1] was 1 to 100 nM; against myeloperoxidase (MPO) [2], 101 to 999 nM.
